One assay deals with isolated rat hearts. The experiment in a line: Ischemia-reperfusion injury, Langendorff isolated heart preparation. Particulars: 30 min LAD occlusion + 120 min reperfusion, compound 1 μM in perfusion solution, mean.
Assay [1] has as its system rat. Description: Rat Myocardial Infarction Model. The assay is classed as in vivo. Particulars: s.c. 2×2 mg/kg, 30 min before ischemia and 5 min before reperfusion, 30 min LAD occlusion, 24 hours post-reperfusion, n=8. How it is done: The Rat Myocardial Infarction Model was performed by IPST Therapeutique Inc, Sherbrooke, Quebec, Canada. The animals were randomized in terms of even distribution between treatment groups based on their body weight by the Study Director with the aim of scheduling animal from each treatment group for each day of surgery (when possible). • 1) Sham group: size of the group: n=2. Route of administration: n/a; • 2) Vehicle group: size of the group: n=8. Route of administration: s.c.; • 3) Testing article group: size of the group: n=8. Route of administration: s.c.; Treatment dose: 2×2 mg/kg, 30 min before ischemia and 5 min before reperfusion. Experimental Procedures Study Design • 1) On the day of the surgery, the rat will be anaesthetized with a mixture of 2 to 2.5%. isoflurane USP (Abbot Laboratories, Montreal Canada) in oxygen, and placed on a heating pad to maintain body temperature. • 2) The animal will be intubated and immediately ventilated by means of a positive-pressure rodent respirator set at 10 mL/kg bodyweight at a frequency of 65-70 strokes/min. • 3) A baseline blood sample (1 mL) will be taken from the jugular vein for baseline biomarkers quantification. The blood will be collected in lithium heparin microtainers and centrifuged at 3000 rpm, at 4±2° C. for 10 minutes. The plasma will be aliquoted in 2 samples of equal volume (approximately 250 μL). […] A 1 mL blood sample will be taken from the jugular vein, for 24 hrs biomarkers quantification. • 11) The heart will be excised and mounted into a Langendorff apparatus. […]

Assay [2] relates to rat. The experiment in a line: Rat Acute Kidney Injury (AKI) Model, renal ischemia-reperfusion. The arrangement: concentration or dose not given beside the values. The assay is classed as in vivo. As to conditions: 30 minutes renal artery occlusion of both kidneys, 24 hours after reperfusion, relative to vehicle. How it is done: The Rat Acute Kidney Injury (AKI) Model was performed by IPST Therapeutique Inc, Sherbrooke, Quebec, Canada. The animals were randomized in terms of even distribution between treatment groups based on their body weight by the Study Director with the aim of scheduling animal from each group at each day of surgery. The rats will be given free access to food and water. Experimental Procedures Induction of Ischemia-Reperfusion • 1. Rats will be anaesthetized with isoflurane USP (Abbot Laboratories, Montreal Canada) 2% in oxygen and placed on a heated pad to maintain body temperature. The ECG and oxygen saturation will be monitored for the entire surgical process. The body temperature will be monitored with a probe thermometer introduced into the abdomen, very close to the kidneys. • 2. A 1 mL blood draw will be taken from the jugular vein. The blood will be collected into lithium heparin tubes and centrifuged at 3000 rpm for 10 min. to obtain the plasma. The plasma will be separated into 200 μL aliquot and stored at −20° C. until dosage of biomarkers. • 3. The abdomen will be disinfected with providone iodine and alaparotomy will be performed. • 4. The kidneys will be exposed and a temporary suture will be placed around renal artery of the two kidneys. Renal ischemia will be visually confirmed by a gradual changed of the kidneys colour going from red to dark purple within a couple of minutes following the start of the ischemia. During the ischemia, the kidneys will be kept moist and warm using a heat lamp and sterile gauze soaked in warm (37° C.) saline. The temperature will be monitored with a probe thermometer introduced into the abdomen, very close to the kidneys. • 5. After 30 minutes of occlusion, the suture will be removed. • 6. The abdominal wounds will be closed with 4-0 silk suture, and the animal will be return to its cage. • 7. Twenty-four hours after reperfusion the rats will be re-anesthetized. A second blood draw will be taken as was done before the ischemia. • 8. Sham will be treated under same conditions as vehicle, except, kidneys will not be subjected to ischemic conditions. Detection of Biomarkers A 200 μL aliquot of plasma sample will be taken before the ischemia and 24 hours following the ischemia; both will be sent to the clinical laboratory of the CHUS (Centre Hospitalier Universitaire de Sherbrooke, Quebec, Canada) for detection of plasma level of creatinine (p.Cr) and Blood Urea Nitrogen (BUN). Computer Systems The following are the validated computer systems to be used during the conduct of this study. The analysis software will be Microsoft Office Excel 2007 installed on networked personal computers running Microsoft Windows8, XP Professional or Vista. Data Analysis Values are presented as means±SEM (standard error of the means) and presented by the symbol+on the graph. Repeat un-paired Student's t-tests were performed in Microsoft Excel 2007 on all experimental data. Differences were considered significant when p≤ 0.05. The vehicle group was compared to the sham group while the test article was compared to the vehicle group. The plasma creatinine post-UR (% mean of vehicle) was calculated using the following formula:
[formula] Where: p.Cr=Plasma creatinine Mean Δ plasma creatinine in sham group=Mean (plasma creatinine 24 h post-isch.−plasma creatinine pre-isch.) in sham group Mean Δ plasma creatinine in vehicle group=Mean ((plasma creatinine 24 h post-inch.−plasma creatinine pre-isch.)−Mean Δ plasma creatinine in sham group) in vehicle group The BUN post-I/R (% mean of vehicle) was calculated using the following formula:
[formula] […]

Assay [3] in a line: 3H D-Arg-DMT-Lys-Phe-NH2 displacement filtration binding assay. Particulars: rat heart homogenate, 3H D-Arg-DMT-Lys-Phe-NH2 6-8 nM; range the pharmacological standard had to stay in (quality control). How it is done:
1) Radioligand Displacement Methods and Procedures
1.1 Rat Heart Homogenate Preparation
Aptuit is committed to the highest standards of animal welfare and is subject to legislation under the Italian Legislative Decree no. 26/2014. All studies were conducted in accordance with national legislation and under authorization issued by the Italian Ministry of Health. The rat heart homogenate aliquots were prepared according to the following procedure. Hearts from 20 Sprague Dawley male rats were dissected out and quickly frozen at −80° C. On the day of homogenate preparation, hearts were thawed at 4° C. Groups of 2 hearts in 2 volumes of ice cold 20 mM HEPES, 1 mM EDTA, pH 7.4 buffer were homogenized with the GentleMACS dissociator (Miltenyi Biotec) using the D02 protocol. The final suspension of 20 hearts was divided in 4 aliquots with additional ice cold buffer up to 200 mL for each tube, homogenized with a Polytron and centrifuged at 24,000g for 40 min at 4° C. (T21 Sorvall, Rotor SL0250T, 13,500 rpm). For each tube, the supernatant was discarded, and the pellet resuspended with 100 mL of ice cold buffer, homogenized and centrifuged. This step was repeated twice. The final pellets were collected together in one tube with 70 mL of buffer. […] The protein content, measured with the Bradford (Bio-Rad) method using BSA as standard was 6.15 mg/mL. […]

For `Cc1cc(O)cc(C)c1C[C@H](NC(=O)[C@H](N)CCCNC(=N)N)C(=O)N[C@@H](CCCCN)c1nc(Cc2ccccc2)no1` [Example 31, (R)-2-amino-N-((S)-1-(((S)-5-amino-1-(3-benzyl-1,2,4-oxadiazol-5-yl)pentyl)amino)-3-(4-hydroxy-2,6-dimethylphenyl)-1-oxopropan-2-yl)-5-guanidinopentanamide], the “Infarct size, % of area at risk” value in the assay on isolated rat hearts is recorded as 35%. Besides, in the assay with isolated rat hearts (only white necrotic tissue), the “White Necrotic Area, % of area at risk” value came out at 22%. In addition, the “Infarct size (%), Mean” value with rat [1] is listed as 16.4%. For the same molecule, in the assay with rat [2], the “BUN, % Protection, Mean” value was determined as 81.4% and the “Plasma Creatinine, % Protection, Mean” value turned out to be 86.2%.
With D-Arg-DMT-Lys-Phe-NH2 [SBT-031], the “pIC50, high affinity value of the unlabeled SBT-031 displacement curve” value in assay [3] stood at 7.6±0.5.
